Molecular target: T1, Tyrosine-protein phosphatase non-receptor type 1 (Homo sapiens, UniProt P18031)
T1 sequence (P18031 whole entry): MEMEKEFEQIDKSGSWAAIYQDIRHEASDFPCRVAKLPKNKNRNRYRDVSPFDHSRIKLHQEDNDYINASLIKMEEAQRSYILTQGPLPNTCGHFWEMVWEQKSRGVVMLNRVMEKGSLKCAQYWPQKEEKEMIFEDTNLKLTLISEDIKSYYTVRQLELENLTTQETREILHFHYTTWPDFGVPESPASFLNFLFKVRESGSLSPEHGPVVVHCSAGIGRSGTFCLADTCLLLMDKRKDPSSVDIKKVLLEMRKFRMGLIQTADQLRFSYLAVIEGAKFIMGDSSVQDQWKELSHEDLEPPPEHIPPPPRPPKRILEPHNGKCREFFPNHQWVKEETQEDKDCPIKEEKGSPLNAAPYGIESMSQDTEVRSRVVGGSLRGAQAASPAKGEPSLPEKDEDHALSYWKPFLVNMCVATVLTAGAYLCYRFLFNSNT
Test: Non-competitive reversible inhibition of human PTP1B

Structure (SMILES) | IC50 (read-out: IC50) | IC50 (read-out: pIC50 (converted))
CC1(C)C=C2C(=NN(c3ccccc3)C(N)=C2C#N)CO1 | 5.7 µM | 5.7 µM
N#CC1=C(N)N(c2ccccc2)N=C2CSCC=C21 | 1.1 µM | 1.1 µM
CC1(C)C=C2C(=NN(c3cccc(CO)c3)C(N)=C2C#N)CO1 | 2.4 µM | 2.4 µM
CC1(C)C=C2C(=NN(c3ccccc3C(F)(F)F)C(N)=C2C#N)CO1 | 3.9 µM | 3.9 µM
CC1(C)C=C2C(=NN(c3cccc(C(F)(F)F)c3)C(N)=C2C#N)CO1 | 2.8 µM | 2.8 µM
CCOc1ccc(N2N=C3COC(C)(C)C=C3C(C#N)=C2N)cc1 | 3.2 µM | 3.2 µM
CCOc1ccccc1N1N=C2COC(C)(C)C=C2C(C#N)=C1N | 3.4 µM | 3.4 µM
N#CC1=C(N)N(c2ccccc2)N=C2COCC=C21 | 0.35 µM | 0.35 µM
COC(=O)c1cccc(N2N=C3COC(C)(C)C=C3C(C#N)=C2N)c1 | 2.1 µM | 2.1 µM
N#CC1=C(N)N(c2ccccc2)N=C2CCCC=C21 | 10.4 µM | 10.4 µM
CC(C)c1ccccc1N1N=C2CSCC=C2C(C#N)=C1N | 2 µM | 2 µM
N#CC1=C(N)N(c2ccc(F)cc2)N=C2CSCC=C21 | 2 µM | 2 µM
N#CC1=C(N)N(c2ccccc2F)N=C2CSCC=C21 | 4.4 µM | 4.4 µM
COc1ccc(N2N=C3CSCC=C3C(C#N)=C2N)cc1 | 1.3 µM | 1.3 µM
CC1(C)C=C2C(=NN(c3ccccc3N3CCOCC3)C(N)=C2C#N)CO1 | 2.9 µM | 2.9 µM
CC(C)c1cccc(N2N=C3COC(C)(C)C=C3C(C#N)=C2N)c1 | 8.2 µM | 8.2 µM
CCCCc1ccc(N2N=C3COC(C)(C)C=C3C(C#N)=C2N)cc1 | 7 µM | 7 µM
CCCCc1ccccc1N1N=C2COC(C)(C)C=C2C(C#N)=C1N | 1.5 µM | 1.5 µM
CC1(C)C=C2C(=NN(c3ccc(F)cc3)C(N)=C2C#N)CO1 | 4.9 µM | 4.9 µM

Structure (SMILES) | IC50 (read-out: IC50) | IC50 (read-out: pIC50 (converted))
CC1(C)C=C2C(=NN(c3ccccc3F)C(N)=C2C#N)CO1 | 2.4 µM | 2.4 µM
CC1(C)C=C2C(=NN(c3cccc(F)c3)C(N)=C2C#N)CO1 | 4.5 µM | 4.5 µM
CC1(C)C=C2C(=NN(c3ccc(CCO)cc3)C(N)=C2C#N)CO1 | 2.9 µM | 2.9 µM
COc1ccc(N2N=C3COC(C)(C)C=C3C(C#N)=C2N)cc1 | 2.2 µM | 2.2 µM
COc1ccccc1N1N=C2COC(C)(C)C=C2C(C#N)=C1N | 6.2 µM | 6.19 µM
COc1cccc(N2N=C3COC(C)(C)C=C3C(C#N)=C2N)c1 | 3.6 µM | 3.6 µM
CC1(C)C=C2C(=NN(c3ccc(Oc4ccccc4)cc3)C(N)=C2C#N)CO1 | 22.7 µM | 22.7 µM
CC1(C)C=C2C(=NN(c3ccccc3Oc3ccccc3)C(N)=C2C#N)CO1 | 15.8 µM | 15.8 µM
CC1(C)C=C2C(=NN(c3cccc(Oc4ccccc4)c3)C(N)=C2C#N)CO1 | 3.9 µM | 3.9 µM
CC(=O)Nc1ccc(N2N=C3COC(C)(C)C=C3C(C#N)=C2N)cc1 | 6.1 µM | 6.1 µM
CC(=O)Nc1cccc(N2N=C3COC(C)(C)C=C3C(C#N)=C2N)c1 | 2.3 µM | 2.3 µM
CC1(C)C=C2C(=NN(c3ccccc3[N+](=O)[O-])C(N)=C2C#N)CO1 | 17.5 µM | 17.5 µM
CCc1ccc(N2N=C3COC(C)(C)C=C3C(C#N)=C2N)cc1 | 2.8 µM | 2.8 µM
CCc1ccccc1N1N=C2COC(C)(C)C=C2C(C#N)=C1N | 1.6 µM | 1.6 µM
CCc1cccc(N2N=C3COC(C)(C)C=C3C(C#N)=C2N)c1 | 8.2 µM | 8.2 µM
CC1(C)C=C2C(=NN(c3ccc(CO)cc3)C(N)=C2C#N)CO1 | 1.7 µM | 1.7 µM
CC1(C)C=C2C(=NN(c3ccccc3CO)C(N)=C2C#N)CO1 | 11.1 µM | 11.1 µM
CC(C)c1ccc(N2N=C3CSCC=C3C(C#N)=C2N)cc1 | 5.6 µM | 5.6 µM

From ChEMBL document CHEMBL2424609, “In silico accounting of novel pyridazine analogues as h-PTP 1B inhibitors: pharmacophore modelling, atom-based 3D QSAR and docking studies” (Med Chem Res, 2013)
